From patent US20150258059A1, “ANTIMICROBIAL AND RADIOPROTECTIVE COMPOUNDS” (BioDiem, Ltd, priority 2001, published 2015)
Values after ≈ are worked out from the molar mass of the structure shown.

Experiments:
Candida albicans = assay: M38-P microdilution MIC/MFC; format: cell-based; conditions: Table 16, 24 h, 35° C.
[1] = system: C. guillermondii RMIT 176; assay: M38-P microdilution MIC/MFC; format: cell-based; conditions: Table 16, 24 h, 35° C.
C. krusei RMIT 177 = assay: M38-P microdilution MIC/MFC; format: cell-based; conditions: Table 16, 24 h, 35° C.
C. parapsilosis RMIT 178 = assay: M38-P microdilution MIC/MFC; format: cell-based; conditions: Table 16, 24 h, 35° C.
C. tropicalis RMIT 181 = assay: M38-P microdilution MIC/MFC; format: cell-based; conditions: Table 16, 24 h, 35° C.
C. glabrate RMIT 157 = assay: M38-P microdilution MIC/MFC; format: cell-based; conditions: Table 16, 24 h, 35° C.
Cryptococcus neoformans = assay: M38-P microdilution MIC/MFC; format: cell-based; conditions: Table 16, 24 h, 35° C.
Aspergillus fumigatus = assay: M38-P microdilution MIC/MFC; format: cell-based; conditions: Table 16, 48 h, 35° C.
A. Niger = assay: M38-P microdilution MIC/MFC; format: cell-based; conditions: Table 16, 48 h, 35° C.
A. Flavus = assay: M38-P microdilution MIC/MFC; format: cell-based; conditions: Table 16, 48 h, 35° C.
Fusarium graminearum = assay: microbe, parasite or virus in culture; format: cell-based; conditions: Table 16; M38-P; 48 h, 35° C.
F. chlamydosporum = assay: M38-P microdilution MIC/MFC; format: cell-based; conditions: Table 16, 48 h, 35° C.
Rhizopus stoloniefer = assay: M38-P microdilution MIC/MFC; format: cell-based; conditions: Table 16, 48 h, 35° C.
R. oryzae = assay: M38-P microdilution MIC/MFC; format: cell-based; conditions: Table 16, 48 h, 35° C.
Rhizomucor pusillus = assay: M38-P microdilution MIC/MFC; format: cell-based; conditions: Table 16, 48 h, 35° C.
Paecilomyces variotii = assay: M38-P microdilution MIC/MFC; format: cell-based; conditions: Table 16, 48 h, 35° C.
Fonsecaea pedrosoi = assay: M38-P microdilution MIC/MFC; format: cell-based; conditions: Table 16, Dematiaceous fungi
Phialophora verrucosa = assay: M38-P microdilution MIC/MFC; format: cell-based; conditions: Table 16, Dematiaceous fungi
Pseudoallescheria boydii = assay: M38-P microdilution MIC/MFC; format: cell-based; conditions: Table 16, Dematiaceous fungi
Salmonella intranasally = assay: Anti-bacterial activity in vivo, infected mice; conditions: schedule +2, +3; 200 mg/kg intramuscularly
[2] = system: Corynebacterium paratuberculosis; assay: Anti-bacterial activity in vivo, infected mice
Protocol: The therapeutic and prophylactic effect of the substances was determined in experiments in vivo on mice, infected intraperitoneally or intranasally with Corynebacterium paratuberculosis.

[3] = system: skin wounds infected by Streptococcus and Staphylococcus; assay: Treatment of infected wounds, human volunteers; format: in vivo; conditions: 0.1% ointment for 3 days
Protocol: Human volunteers suffering from skin wounds infected by Streptococcus and Staphylococcus were treated with 0.1% Compounds (1) and (2) in an ointment base of vaseline, sheep fat, and sulfoxide.

C[C@@H]1[C@H](O)[C@@H](C)/C=C/C=C/C=C/C=C/C=C/C=C/C=C/[C@H](O[C@@H]2O[C@H](C)[C@@H](O)[C@H](N)[C@@H]2O)C[C@@H]2O[C@](O)(C[C@@H](O)C[C@@H](O)[C@H](O)CC[C@@H](O)C[C@@H](O)CC(=O)O[C@H]1C)C[C@H](O)[C@H]2C(=O)O [Amphotericin B]
MIC (Candida albicans): 0.251 µg/mL (≈ 0.272 µM)
MMC (Candida albicans): 0.25 µg/mL
MIC [1]: 0.03 µg/mL (≈ 0.0325 µM)
MMC [1]: 0.06 µg/mL
MIC (C. krusei RMIT 177): 0.52 µg/mL (≈ 0.563 µM)
MMC (C. krusei RMIT 177): 0.5 µg/mL
MIC (C. parapsilosis RMIT 178): 0.253 µg/mL (≈ 0.274 µM)
MMC (C. parapsilosis RMIT 178): 0.25 µg/mL
MIC (C. tropicalis RMIT 181): 0.25 µg/mL (≈ 0.271 µM)
MMC (C. tropicalis RMIT 181): 0.5 µg/mL
MIC (C. glabrate RMIT 157): 0.5 µg/mL (≈ 0.541 µM)
MMC (C. glabrate RMIT 157): 1 µg/mL
MIC (Cryptococcus neoformans): 0.5 µg/mL (≈ 0.541 µM)
MMC (Aspergillus fumigatus): 8 µg/mL
MIC (A. Niger): 2 µg/mL (≈ 2.16 µM)
MMC (A. Niger): 2 µg/mL
MIC (A. Flavus): 8 µg/mL (≈ 8.66 µM)
MMC (A. Flavus): 8 µg/mL
MIC (Fusarium graminearum): 4 µg/mL (≈ 4.33 µM)
MMC (Fusarium graminearum): 8 µg/mL
MIC (F. chlamydosporum): 2 µg/mL (≈ 2.16 µM)
MMC (F. chlamydosporum): 2 µg/mL
MIC (Rhizopus stoloniefer): >16 µg/mL
MIC (R. oryzae): 4 µg/mL (≈ 4.33 µM)
MMC (R. oryzae): 4 µg/mL
MIC (Rhizomucor pusillus): 1 µg/mL (≈ 1.08 µM)
MMC (Rhizomucor pusillus): 1 µg/mL
MIC (Paecilomyces variotii): 1 µg/mL (≈ 1.08 µM)
MMC (Paecilomyces variotii): 1 µg/mL
MIC (Fonsecaea pedrosoi): 8 µg/mL (≈ 8.66 µM)
MMC (Fonsecaea pedrosoi): 16 µg/mL
MIC (Phialophora verrucosa): 2 µg/mL (≈ 2.16 µM)
MMC (Phialophora verrucosa): 4 µg/mL
MIC (Pseudoallescheria boydii): 4 µg/mL (≈ 4.33 µM)
MMC (Pseudoallescheria boydii): 16 µg/mL

O=[N+]([O-])/C=C/c1ccc2c(c1)OCO2 [Compound (2), 3,4-methylenedioxy-β-nitrostyrene]
Cumulative mortality (test) (Salmonella intranasally): 15
Incubation period days (test) (Salmonella intranasally): 1 days
therapeutic and prophylactic activity [2]: showed therapeutic and prophylactic activity
clearing of infected wound [3]: cleared the wound completely of pus
solubility in organic solvents (Solubility): soluble in acetone, alcohol, acetic acid and in a majority of organic solvents
solubility in water (Solubility): non-soluble in water
